Calls of active or inactive are those of the source.
How the values were obtained:
Kallikrein-7 = Kallikrein-7 (Homo sapiens, UniProt P49862); test: Fluorescence Intensity-based biochemical primary high throughput dose response assay to identify activators of kallikrein-7 (K7) zymogen.
HEK293 [1] = test: inhibition of NOD1-driven NF-kB reporter – cell-based, luminescence, uHTS, primary screen (AID 1578); assay type: functional; conditions: Homo sapiens
[2] = EF1alpha-driven Renilla reporter with control 3'UTR suppression – Clone20-Shn3RL cells, dual-Glo, cherry-pick, set 2, counter-screen for Shn3 3'UTR targeting project, dose response (AID 720724); assay type: functional, cell-based; conditions: Dual-Go Shn3RL
HEK293 [3] = test: cells; assay type: functional, cell-based; conditions: Homo sapiens
Tumor necrosis factor = Tumor necrosis factor (Homo sapiens, UniProt P01375); test: analog potency on TNFa NF-kB signaling – cell-based, revised, SAR follow-up (AID 2337); assay type: functional
HEK293 [4] = test: NOD2 signaling inhibitors in MDP-stimulated cells, cell-based, uHTS, luminescence (AID 2001); assay type: functional; conditions: Homo sapiens
[5] = Shn3 3'UTR reporter signal decrease – cell-based, Clone20 osteoblasts, firefly luciferase, cherry-pick, set 2, Schnurri-3 inhibitor project, dose response (AID 720490); assay type: functional;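 further: actives lower the luminescence signal as inhibitors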
[6] = non-specific 3'UTR reporter inhibition in Clone20-Shn3RL – cell-based, Renilla luciferase, cherry-picked, counter-screen for Shn3 inhibitor project, dose response (AID 624133); assay type: functional
HEK293 [7] = test: cells; conditions: Homo sapiens
[8] = loss of viability in HepG2 cells – cell-based, CellTiter-Glo, cherry-picked, cytotoxicity control for Shn3 inhibitor project, dose response (AID 624134); assay type: functional
[9] = reduction of Shn3 3'UTR-driven luciferase in osteoblasts – cell-based, Clone20 osteoblasts, firefly luciferase, cherry-picked, dose response (AID 624132); assay type: functional;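 further: firefly luciferase luminescence from reporter carrying the Shn3 3'UTR in osteoblasts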
HEK293 [10] = test: cells; assay type: functional, cell-based; conditions: Homo sapiens; remark: listed apart in the source
[11] = target: T1, Nucleotide-binding oligomerization domain-containing protein 1 (Homo sapiens, UniProt Q9Y239); test: blockers of NOD1 pathway activity – revised, SAR follow-up (AID 2333); assay type: functional
T1 sequence (Q9Y239 whole entry): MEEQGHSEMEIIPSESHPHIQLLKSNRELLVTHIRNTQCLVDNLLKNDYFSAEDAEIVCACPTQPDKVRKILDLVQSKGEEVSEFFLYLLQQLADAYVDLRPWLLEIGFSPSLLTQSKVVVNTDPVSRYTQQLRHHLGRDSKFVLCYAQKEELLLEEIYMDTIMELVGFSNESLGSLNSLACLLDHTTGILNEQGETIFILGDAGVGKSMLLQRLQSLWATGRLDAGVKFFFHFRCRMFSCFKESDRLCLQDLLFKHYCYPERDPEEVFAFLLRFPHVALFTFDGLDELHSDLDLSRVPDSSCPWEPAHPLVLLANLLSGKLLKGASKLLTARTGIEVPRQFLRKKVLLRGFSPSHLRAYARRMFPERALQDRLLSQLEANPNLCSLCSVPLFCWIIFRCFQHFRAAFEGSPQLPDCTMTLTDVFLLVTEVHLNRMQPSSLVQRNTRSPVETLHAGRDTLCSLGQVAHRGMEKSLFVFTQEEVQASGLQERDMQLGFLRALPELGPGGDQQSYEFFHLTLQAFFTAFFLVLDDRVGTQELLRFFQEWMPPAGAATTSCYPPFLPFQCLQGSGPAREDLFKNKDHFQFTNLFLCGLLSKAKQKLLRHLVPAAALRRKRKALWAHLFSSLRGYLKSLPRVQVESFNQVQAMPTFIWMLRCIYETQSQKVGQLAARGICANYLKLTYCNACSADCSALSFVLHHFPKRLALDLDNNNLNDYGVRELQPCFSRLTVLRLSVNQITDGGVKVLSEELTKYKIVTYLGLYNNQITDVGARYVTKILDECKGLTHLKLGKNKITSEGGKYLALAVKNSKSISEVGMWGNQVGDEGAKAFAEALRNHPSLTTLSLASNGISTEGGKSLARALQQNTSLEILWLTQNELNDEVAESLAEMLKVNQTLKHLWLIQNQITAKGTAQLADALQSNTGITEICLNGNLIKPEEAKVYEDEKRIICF

fMet-Leu-Phe receptor = fMet-Leu-Phe receptor (Homo sapiens, UniProt P21462); test: formyl peptide receptor binders – dose response (AID 519); assay type: functional
Sequence of fMet-Leu-Phe receptor (P21462 whole entry): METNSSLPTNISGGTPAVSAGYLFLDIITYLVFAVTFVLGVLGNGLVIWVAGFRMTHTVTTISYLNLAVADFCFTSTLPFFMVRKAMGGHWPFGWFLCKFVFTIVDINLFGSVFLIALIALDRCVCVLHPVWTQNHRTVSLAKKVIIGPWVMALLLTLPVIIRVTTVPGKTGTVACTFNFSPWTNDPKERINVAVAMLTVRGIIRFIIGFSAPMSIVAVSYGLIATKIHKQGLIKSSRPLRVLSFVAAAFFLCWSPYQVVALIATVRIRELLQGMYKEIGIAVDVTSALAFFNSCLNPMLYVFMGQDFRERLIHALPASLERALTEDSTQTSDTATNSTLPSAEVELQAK

Sequence of Kallikrein-7 (P49862 whole entry): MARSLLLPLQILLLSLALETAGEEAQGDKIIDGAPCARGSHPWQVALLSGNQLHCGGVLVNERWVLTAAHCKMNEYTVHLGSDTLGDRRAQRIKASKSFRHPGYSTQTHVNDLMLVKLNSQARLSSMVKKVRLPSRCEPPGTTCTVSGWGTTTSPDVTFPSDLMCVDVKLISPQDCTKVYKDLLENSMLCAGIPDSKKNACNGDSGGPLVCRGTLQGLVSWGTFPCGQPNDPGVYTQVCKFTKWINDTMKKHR
Sequence of Tumor necrosis factor (P01375 whole entry): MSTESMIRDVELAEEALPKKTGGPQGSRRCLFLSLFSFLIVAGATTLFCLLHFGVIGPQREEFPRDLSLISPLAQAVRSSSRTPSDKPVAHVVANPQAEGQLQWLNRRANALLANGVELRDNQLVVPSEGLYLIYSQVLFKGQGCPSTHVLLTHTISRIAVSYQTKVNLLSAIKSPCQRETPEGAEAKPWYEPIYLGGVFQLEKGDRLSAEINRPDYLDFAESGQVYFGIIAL

With COCCNC(=O)Cc1c(C)c2cc3c(cc2oc1=O)OC(C)(C)CC3 the EC50 (Kallikrein-7) was > 69.6 µM (inactive).

In the case of c1ccc(CNc2ncnc3scc(-c4cccs4)c23)nc1, the EC50 (HEK293 [1]) is reported as 3.58 µM (active), the AC50 [2] is reported as 6.34 µM (active) and the IC50 (HEK293 [3]) is reported as 6 µM (active). The IC50 (Tumor necrosis factor) was 3.22 µM (active), the IC50 (HEK293 [4]) was 5.05 µM (active) and the AC50 [5] was 3.71 µM (active). The AC50 [6] was 29.8 µM (active), the IC50 (HEK293 [7]) was 13.5 µM (active) and the AC50 [8] was 67.1 µM (active). For the same molecule, the AC50 [9] was 3.59 µM (active), the IC50 (HEK293 [10]) was 19.8 µM (active) and the IC50 [11] was 2.69 µM (active).

In the case of COCCCn1c(C(=O)NCCN2CCOCC2)cc2c(=O)n3cccc(C)c3nc21, the EC50 (Kallikrein-7) is reported as > 69.5 µM (inactive).

In the case of CCn1cc(CN(C)S(=O)(=O)c2ccc3ccccc3c2)c(C)n1, the AC50 [2] is reported as 1.8 µM (active), the AC50 [5] is reported as 2.23 µM (active) and the AC50 [6] is reported as 22.8 µM (active). For the same molecule, the AC50 [8] was 39.4 µM (active) and the AC50 [9] was 1.56 µM (active).

For COc1ccccc1C1C(C(=O)c2ccccc2)=C(O)C(=O)N1CC(C)C (stereo not given), the Ki (fMet-Leu-Phe receptor) was 5.5 µM (active).

— ChEMBL document CHEMBL1201862, “PubChem BioAssay data set” (2004)
